Experimental data taken from US20240148821A1, “PHARMACEUTICAL USE OF CYCLIC PEPTIDE COMPOUND” (CHUGAI SEIYAKU KABUSHIKI KAISHA, priority 2021, published 2024).
Bridge positions count the residues as written; N and C are the ends. Square brackets hold non-standard residues; d marks the D form. Peptide text beside a SMILES is read from it. * marks the point of attachment. hPhe(3-Cl-4-CF3) = N[C@@H](CCc1ccc(C(F)(F)F)c(Cl)c1)C(=O)O; NEtPhe(4-CF3) = CCN[C@@H](Cc1ccc(C(F)(F)F)cc1)C(=O)O; NMePhe(4-CF3) = CN[C@@H](Cc1ccc(C(F)(F)F)cc1)C(=O)O; NEtPhe(4-Me) = CCN[C@@H](Cc1ccc(C)cc1)C(=O)O; NMeAla(cPent) = CN[C@@H](CC1CCCC1)C(=O)O; Hyp = O=C(O)[C@@H]1C[C@@H](O)CN1; NMeI = CC[C@H](C)[C@H](NC)C(=O)O; NMeD = CN[C@@H](CC(=O)O)C(=O)O; NMeL = CN[C@@H](CC(C)C)C(=O)O; Morpholide = C1CN(*)CCO1; NMeA = CN[C@@H](C)C(=O)O; Pyrrolidide = C1CCN(*)C1; Ac5c = NC1(C(=O)O)CCCC1; Aze = O=C(O)[C@@H]1CCN1; Sar = CNCC(=O)O

Columns and labels:
[1] = target: protein-protein interaction between Kras and SOS1 (biotin-tagged human Kras loaded with GDP, His-tagged human SOS1) (Homo sapiens (Human), UniProt P01116, G12D); assay: Protein-protein interaction inhibition between Kras and SOS1 (KrasG12D-SOS PPI) using AlphaScreen; assay type: biochemical; conditions: AlphaScreen; biotin-tagged human Kras loaded with GDP, His-tagged human SOS1; read-out: KRAS G12D-SOS PPI IC50;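 note: kras produced in E. coli, Ni-coupled donor beads and streptavidin acceptor beads, excitation 680 nm with emission detected at 520–620 nm via singlet oxygen transfer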
[2] = system: Human pancreatic cancer cell line AsPC-1 (G12D mutation Kras); assay: AsPC-1 cell growth inhibition (AsPC-1 CGI); assay type: cell-based; conditions: read-out: AsPC-1 cell growth inhibition, 50% growth inhibitory concentration (IC50 value); 96 hours, CellTiter-Glo, values classified in ranges
Protocol: Test compounds were serially dilated with dimethyl sulfoxide, and 200 nL was then dispensed to a U-bottom 96-well plate using Labcyte Echo. […] The cell suspension was dispensed to a. plate containing a test compound at 100 μL per well and incubated at 37° C. in a 5% carbon dioxide gas incubator. 96 hours later, 80 μL of CellTiter-Glo (Promega) was added to each well and fluorescence was measured.

Compound	IC50 [1] [nM]	IC50 [2] [nM]
CC[C@H](C)[C@@H]1NC(=O)[C@H](CC(C)C)N(C)C(=O)C[C@@H](C(=O)N2CCOCC2)N(C)C(=O)[C@H]([C@@H](C)CC)N(C)C(=O)C2(CCCC2)NC(=O)[C@@H]2CCCN2C(=O)[C@H](CCc2ccc(C(F)(F)F)c(Cl)c2)NC(=O)CN(C)C(=O)[C@H](Cc2ccc(C(F)(F)F)cc2)N(CC)C(=O)[C@@H]2CCN2C(=O)[C@H](C)N(C)C1=O [Compound 1312] ([NMeL]I[NMeA][Aze][NEtPhe(4-CF3)][Sar][hPhe(3-Cl-4-CF3)]P[Ac5c][NMeI][NMeD]-Morpholide; lactam N-11)	0.74	≤ 20
CC[C@H](C)[C@@H]1NC(=O)[C@H](CC(C)C)N(C)C(=O)C[C@@H](C(=O)N2CCCC2)N(C)C(=O)[C@H]([C@@H](C)CC)N(C)C(=O)C2(CCCC2)NC(=O)[C@@H]2CCCN2C(=O)[C@H](CCc2ccc(C(F)(F)F)c(Cl)c2)NC(=O)CN(C)C(=O)[C@H](Cc2ccc(C(F)(F)F)cc2)N(CC)C(=O)[C@@H]2CCN2C(=O)[C@H](C)N(C)C1=O [Compound 1319] ([NMeL]I[NMeA][Aze][NEtPhe(4-CF3)][Sar][hPhe(3-Cl-4-CF3)]P[Ac5c][NMeI][NMeD]-Pyrrolidide; lactam N-11)	0.82	≤ 20
CC[C@H](C)[C@@H]1NC(=O)[C@H](CC2CCCC2)N(C)C(=O)C[C@@H](C(=O)N2CCCC2)N(C)C(=O)[C@H]([C@@H](C)CC)N(C)C(=O)C2(CCCC2)NC(=O)[C@@H]2CCCN2C(=O)[C@H](CCc2ccc(C(F)(F)F)c(Cl)c2)NC(=O)CN(C)C(=O)[C@H](Cc2ccc(C(F)(F)F)cc2)N(C)C(=O)[C@@H]2CCN2C(=O)[C@H](C)NC1=O [Compound 1320] ([NMeAla(cPent)]IA[Aze][NMePhe(4-CF3)][Sar][hPhe(3-Cl-4-CF3)]P[Ac5c][NMeI][NMeD]-Pyrrolidide; lactam N-11)	1.4	≤ 20
CC[C@H](C)[C@@H]1NC(=O)[C@H](CC(C)C)N(C)C(=O)C[C@@H](C(=O)N2CCOCC2)N(C)C(=O)[C@H]([C@@H](C)CC)N(C)C(=O)C2(CCCC2)NC(=O)[C@@H]2CCCN2C(=O)[C@H](CCc2ccc(C(F)(F)F)c(Cl)c2)NC(=O)CN(C)C(=O)[C@H](Cc2ccc(C)cc2)N(CC)C(=O)[C@@H]2CCN2C(=O)[C@H](C)N(C)C1=O [Compound 1322] ([NMeL]I[NMeA][Aze][NEtPhe(4-Me)][Sar][hPhe(3-Cl-4-CF3)]P[Ac5c][NMeI][NMeD]-Morpholide; lactam N-11)	0.82	≤ 20
CC[C@H](C)[C@@H]1NC(=O)[C@H](CC(C)C)N(C)C(=O)C[C@@H](C(=O)N2CCCC2)N(C)C(=O)[C@H]([C@@H](C)CC)N(C)C(=O)C2(CCCC2)NC(=O)[C@@H]2CCCN2C(=O)[C@H](CCc2ccc(C(F)(F)F)c(Cl)c2)NC(=O)CN(C)C(=O)[C@H](Cc2ccc(C)cc2)N(CC)C(=O)[C@@H]2CCN2C(=O)[C@H](C)N(C)C1=O [Compound 1325] ([NMeL]I[NMeA][Aze][NEtPhe(4-Me)][Sar][hPhe(3-Cl-4-CF3)]P[Ac5c][NMeI][NMeD]-Pyrrolidide; lactam N-11)	0.96	≤ 20
CCO[C@@H]1C[C@H]2C(=O)NC3(CCCC3)C(=O)N(C)[C@@H]([C@@H](C)CC)C(=O)N(C)[C@H](C(=O)N3CCCC3)CC(=O)N(C)[C@@H](CC(C)C)C(=O)N[C@@H]([C@@H](C)CC)C(=O)N(C)[C@@H](C)C(=O)N3CC[C@H]3C(=O)N(C)[C@@H](Cc3ccc(C(F)(F)F)cc3)C(=O)N(C)CC(=O)N[C@@H](CCc3ccc(C(F)(F)F)c(Cl)c3)C(=O)N2C1 [Compound 1335] ([NMeL]I[NMeA][Aze][NMePhe(4-CF3)][Sar][hPhe(3-Cl-4-CF3)][Hyp](Et)[Ac5c][NMeI][NMeD]-Pyrrolidide; lactam N-11)	0.49	≤ 20
